Laboratory results from patent publication US11040981B2, “Pyrrolotriazine compounds and methods of inhibiting TAM kinases” (Syros Pharmaceuticals, Inc., priority 2017, dated 2021).

What was measured:
TYRO3 = target: T1, TYRO3 (Homo sapiens, UniProt Q06418); test: TR-FRET kinase activity assay, TYRO3; format: biochemical; settings: ATP at Km, 60 minutes
T1 sequence (Q06418 41-890): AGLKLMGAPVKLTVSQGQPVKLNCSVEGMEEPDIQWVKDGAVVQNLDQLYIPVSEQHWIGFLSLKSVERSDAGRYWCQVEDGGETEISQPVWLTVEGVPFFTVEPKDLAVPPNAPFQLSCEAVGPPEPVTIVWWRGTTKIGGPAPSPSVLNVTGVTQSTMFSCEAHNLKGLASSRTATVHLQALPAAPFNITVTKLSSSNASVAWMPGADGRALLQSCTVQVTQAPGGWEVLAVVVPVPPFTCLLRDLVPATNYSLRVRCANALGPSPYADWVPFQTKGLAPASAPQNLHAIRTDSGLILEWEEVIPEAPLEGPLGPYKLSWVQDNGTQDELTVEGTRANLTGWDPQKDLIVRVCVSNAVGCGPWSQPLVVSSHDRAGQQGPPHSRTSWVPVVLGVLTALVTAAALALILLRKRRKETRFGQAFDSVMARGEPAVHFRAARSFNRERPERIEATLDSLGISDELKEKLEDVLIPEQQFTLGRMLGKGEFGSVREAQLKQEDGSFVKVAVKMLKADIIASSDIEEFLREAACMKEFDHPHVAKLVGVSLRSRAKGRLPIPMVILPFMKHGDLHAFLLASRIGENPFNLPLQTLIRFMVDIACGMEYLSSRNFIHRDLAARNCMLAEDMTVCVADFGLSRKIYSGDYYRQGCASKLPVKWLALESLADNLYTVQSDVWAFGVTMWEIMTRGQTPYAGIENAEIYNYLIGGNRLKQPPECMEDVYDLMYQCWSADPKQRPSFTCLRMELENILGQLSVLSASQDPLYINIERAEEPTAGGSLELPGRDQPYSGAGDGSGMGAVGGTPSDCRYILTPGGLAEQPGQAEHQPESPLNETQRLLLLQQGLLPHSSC
In short: (§1)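 Recombinant human kinases, fluorescent peptide substrate, ATP at Km; 1 h RT, pH 7.5. EDTA-quenched, Eu antibody added, TR-FRET read; IC50 determined.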

AXL = target: T2, AXL (Homo sapiens, UniProt P30530); test: TR-FRET kinase activity assay, AXL; format: biochemical; settings: ATP at Km, 60 minutes
T2 sequence (P30530 26-894): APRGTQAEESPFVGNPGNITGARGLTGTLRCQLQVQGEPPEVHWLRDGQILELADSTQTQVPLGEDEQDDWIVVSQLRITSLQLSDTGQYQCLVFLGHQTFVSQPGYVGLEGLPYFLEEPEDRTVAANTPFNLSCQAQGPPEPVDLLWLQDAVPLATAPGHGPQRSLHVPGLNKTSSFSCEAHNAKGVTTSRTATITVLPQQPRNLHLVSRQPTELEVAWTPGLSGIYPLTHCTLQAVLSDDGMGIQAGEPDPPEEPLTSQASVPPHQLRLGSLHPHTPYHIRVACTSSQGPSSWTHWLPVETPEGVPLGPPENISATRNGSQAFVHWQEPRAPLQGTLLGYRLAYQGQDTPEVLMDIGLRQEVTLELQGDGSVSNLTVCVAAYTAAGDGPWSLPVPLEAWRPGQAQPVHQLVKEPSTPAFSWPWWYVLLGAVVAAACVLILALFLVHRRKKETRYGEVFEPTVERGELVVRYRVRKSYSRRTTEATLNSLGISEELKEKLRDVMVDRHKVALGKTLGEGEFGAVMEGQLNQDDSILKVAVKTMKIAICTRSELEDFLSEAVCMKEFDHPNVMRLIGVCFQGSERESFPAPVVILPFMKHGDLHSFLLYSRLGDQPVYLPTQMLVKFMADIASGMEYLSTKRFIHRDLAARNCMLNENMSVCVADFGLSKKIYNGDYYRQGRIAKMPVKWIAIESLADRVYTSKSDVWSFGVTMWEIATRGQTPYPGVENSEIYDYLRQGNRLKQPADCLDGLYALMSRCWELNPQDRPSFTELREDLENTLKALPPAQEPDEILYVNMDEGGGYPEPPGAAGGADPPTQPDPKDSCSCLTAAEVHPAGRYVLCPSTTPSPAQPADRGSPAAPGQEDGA
In short: as §1

Row | IC50 (TYRO3) | IC50 (AXL) | SMILES
1 | ≤ 100 nM | ≤ 100 nM | C[C@@H](CC(F)(F)F)Nc1ncc2c(C3=CCN(C(=O)OC(C)(C)C)CC3)cc([C@H]3CC[C@H](O)CC3)n2n1 [Compound 412]
2 | ≤ 100 nM | 100 to 1000 nM | CNC(=O)c1cc(-c2cc([C@H]3CC[C@H](O)CC3)n3nc(N[C@@H](C)CC(F)(F)F)ncc23)cc(C)n1 [Compound 353]
3 | ≤ 100 nM | ≤ 100 nM | COC[C@H](C)Nc1ncc2c(-c3cnn([C@@H]4CO[C@H]5OCC[C@H]54)c3)cc([C@H]3CC[C@H](O)CC3)n2n1 [Compound 422]
4 | ≤ 100 nM | ≤ 100 nM | COC[C@H](C)Nc1ncc2c(-c3cnn(C4(C(=O)N5CCCC5)CC4)c3)cc([C@H]3CC[C@H](O)CC3)n2n1 [Compound 408]
5 | ≤ 100 nM | 100 to 1000 nM | COCC(C)Nc1ncc2c(C3CCN(C(C)=O)C3)cc(C3CCC(O)CC3)n2n1 (mixture of isomers) [Compound 383]
6 | ≤ 100 nM | ≤ 100 nM | COC[C@H](C)Nc1ncc2c(-c3ccnc(NC4CCOC4)c3)cc([C@H]3CC[C@H](O)CC3)n2n1 (stereo partly drawn) [Compound 418]
7 | ≤ 100 nM | ≤ 100 nM | CC1(Nc2ncc3c(-c4cnn(C5COC5)c4)cc(C4CCC(O)CC4)n3n2)COC1 (stereo not drawn) [Compound 399]
8 | ≤ 100 nM | ≤ 100 nM | COC[C@H](C)Nc1ncc2c(-c3ccnc(OC4CCNCC4)c3)cc([C@H]3CC[C@H](O)CC3)n2n1 [Compound 369]
9 | ≤ 100 nM | ≤ 100 nM | CC(COC(F)F)Nc1ncc2c(-c3cnn(C(C)(C)C(=O)N4CCOCC4)c3)cc(C3CCC(O)CC3)n2n1 (stereo not drawn) [Compound 393]
10 | ≤ 100 nM | ≤ 100 nM | COC[C@H](C)Nc1ncc2c(-c3cnn(CC4COC4)c3)cc([C@H]3CC[C@H](O)CC3)n2n1 [Compound 420]
11 | ≤ 100 nM | 100 to 1000 nM | CNC(=O)c1cc(-c2cc([C@H]3CC[C@H](O)CC3)n3nc(N[C@@H](C)COC(F)F)ncc23)cc(C)n1 [Compound 385]
12 | ≤ 100 nM | ≤ 100 nM | CC(=O)N1CCN(Cc2ccc(-c3cc([C@H]4CC[C@H](O)CC4)n4nc(N[C@@H](C)COC(F)F)ncc34)cc2)CC1 [Compound 413]
13 | ≤ 100 nM | ≤ 100 nM | COCC(C)Nc1ncc2c(-c3cnn(CC4CCCO4)c3)cc(C3CCC(O)CC3)n2n1 (stereo not drawn) [Compound 379]
14 | ≤ 100 nM | ≤ 100 nM | COC[C@H](C)Nc1ncc2c(-c3ccc(CN4CCN(C)CC4)cc3)cc([C@H]3CC[C@H](O)CC3)n2n1 (single isomer, unassigned) [Compound 124]
15 | ≤ 100 nM | ≤ 100 nM | COC[C@H](C)Nc1ncc2c(-c3ccnc(O[C@H]4CCCNC4)c3)cc([C@H]3CC[C@H](O)CC3)n2n1 [Compound 389]
16 | ≤ 100 nM | ≤ 100 nM | COC[C@H](C)Nc1ncc2c(-c3cnn(C4(C(=O)NC(C)C)CC4)c3)cc([C@H]3CC[C@H](O)CC3)n2n1 [Compound 415]
17 | ≤ 100 nM | ≤ 100 nM | COC[C@H](C)Nc1ncc2c(-c3ccnc(O[C@H]4CCNC4)c3)cc([C@H]3CC[C@H](O)CC3)n2n1 [Compound 386]
18 | ≤ 100 nM | ≤ 100 nM | O[C@H]1CC[C@H](c2cc(-c3ccnc(N4CCOCC4)c3)c3cnc(N[C@H]4CCOC4)nn32)CC1 [Compound 362]
19 | 1000 to 10000 nM | 1000 to 10000 nM | COC[C@H](C)Nc1ncc2c([C@@H]3CCCN(C(C)=O)C3)cc([C@H]3CC[C@H](O)CC3)n2n1 [Compound 372]

Row | IC50 (TYRO3) | IC50 (AXL) | SMILES
20 | ≤ 100 nM | ≤ 100 nM | CCCCC[C@H](C)Nc1ncc2c(C3=CCC(C(=O)O)CC3)cc([C@H]3CC[C@H](O)CC3)n2n1 (stereo partly drawn) [Compound 122, 4-(2-((S)-heptan-2-ylamino)-7-((trans)-4-hydroxycyclohexyl)pyrrolo[2,1-f][1,2,4]triazin-5-yl)cyclohex-3-enecarboxylic acid]
21 | ≤ 100 nM | ≤ 100 nM | COC[C@H](C)Nc1ncc2c(-c3ccnc(C)c3)cc([C@H]3CC[C@@](C)(O)CC3)n2n1 [Compound 381]
22 | ≤ 100 nM | ≤ 100 nM | OC1CCC(c2cc(-c3ccnc(N4CCOCC4)c3)c3cnc(NC4CCOC4)nn23)CC1 (stereo not drawn) [Compound 356]
23 | ≤ 100 nM | ≤ 100 nM | COC[C@H](C)Nc1ncc2c(-c3cnn(CC4CC(=O)N(C)C4)c3)cc([C@H]3CC[C@H](O)CC3)n2n1 (stereo partly drawn) [Compound 395]
24 | ≤ 100 nM | ≤ 100 nM | C[C@@H](CC(F)F)Nc1ncc2c(-c3cnn(C4COC4)c3)cc([C@H]3CC[C@H](O)CC3)n2n1 [Compound 351]
25 | ≤ 100 nM | ≤ 100 nM | COC[C@H](C)Nc1ncc2c(-c3cnn([C@@H]4CCN(C(C)=O)C4)c3)cc([C@H]3CC[C@H](O)CC3)n2n1 [Compound 396]
26 | 1000 to 10000 nM | 1000 to 10000 nM | C[C@H](CN(C)C)Nc1ncc2c(-c3cnn(C4COC4)c3)cc([C@H]3CC[C@H](O)CC3)n2n1 [Compound 388]
27 | ≤ 100 nM | ≤ 100 nM | CNc1cc(-c2cc([C@H]3CC[C@H](O)CC3)n3nc(N[C@@H](C)COC)ncc23)ccn1 [Compound 354]
28 | 100 to 1000 nM | 100 to 1000 nM | CCCCC[C@H](C)Nc1ncc2c([C@H]3CC[C@@H](C(=O)O)CC3)cc([C@H]3CC[C@H](O)CC3)n2n1 [Compound 125, (cis)-4-(2-((S)-heptan-2-ylamino)-7-((trans)-4-hydroxycyclohexyl)pyrrolo[2,1-f][1,2,4]triazin-5-yl)cyclohexanecarboxylic acid]
29 | ≤ 100 nM | ≤ 100 nM | CNC(=O)c1ncc(-c2cc([C@H]3CC[C@H](O)CC3)n3nc(N[C@@H](C)CC(F)(F)F)ncc23)cn1 [Compound 347]
30 | ≤ 100 nM | ≤ 100 nM | COC[C@H](C)Nc1ncc2c(-c3cnn([C@@H]4CCC(C(=O)OC(C)(C)C)C4)c3)cc([C@H]3CC[C@H](O)CC3)n2n1 (stereo partly drawn) [Compound 364]
31 | ≤ 100 nM | ≤ 100 nM | COC[C@H](C)Nc1ncc2c(-c3ccnc(O[C@@H]4CCN(C)C4)c3)cc([C@H]3CC[C@H](O)CC3)n2n1 [Compound 402]
32 | ≤ 100 nM | 100 to 1000 nM | CN1CCN(Cc2ccc(-c3cc(C4CCC(O)CC4)n4nc(NC5CCC5(C)C)ncc34)cc2)CC1 (mixture of isomers) [Compound 121]
33 | ≤ 100 nM | ≤ 100 nM | COC[C@H](C)Nc1ncc2c(-c3ccnc(O[C@H]4CCN(C)C4)c3)cc([C@H]3CC[C@H](O)CC3)n2n1 [Compound 400]
34 | ≤ 100 nM | ≤ 100 nM | COC[C@H](C)Nc1ncc2c(-c3cnn(CC4CCOCC4)c3)cc([C@H]3CC[C@H](O)CC3)n2n1 [Compound 392]
35 | ≤ 100 nM | ≤ 100 nM | COC[C@H](C)Nc1ncc2c(-c3cnn(C4(C(=O)N5CCOCC5)CC4)c3)cc([C@H]3CC[C@H](O)CC3)n2n1 [Compound 414]
36 | 100 to 1000 nM | 1000 to 10000 nM | C[C@@H](CN(C)C)Nc1ncc2c(-c3cnn(C4COC4)c3)cc([C@H]3CC[C@H](O)CC3)n2n1 [Compound 387]
37 | ≤ 100 nM | ≤ 100 nM | CNOc1cc(-c2cc([C@H]3CC[C@H](O)CC3)n3nc(N[C@@H](C)COC)ncc23)ccn1 [Compound 361]
38 | ≤ 100 nM | 100 to 1000 nM | COCC(C)Nc1ncc2c(C3CCN(c4ccnc(C)n4)C3)cc(C3CCC(O)CC3)n2n1 (stereo not drawn) [Compound 373]

Row | SMILES | IC50 (TYRO3) | IC50 (AXL)
39 | COC[C@H](C)Nc1ncc2c(-c3cnn(C4COC4)c3)cc(C3CCC(=O)CC3)n2n1 [Compound 406] | ≤ 100 nM | 100 to 1000 nM
